# Laboratory results published in patent US20220016048A1, “CANNABIDIOL-TYPE CANNABINOID COMPOUND” (GW Research Limited, priority 2018, published 2022).
# “Also recorded” adds a separate entry of the source.
# Experiments:
# Type in all cases: in vivo, rat
# DNA damage in the liver = test: Alkaline Comet assay
# Procedure: CBD-C4 was tested for its potential to induce micronuclei (MN) in the polychromatic erythrocytes (PCE) of the bone marrow of treated rats to induce DNA damage in the liver of the same animals.
# CBD-C4 was administered at a dose of 125, 250 and 500 mg/kg/day during this study. Vehicle and a positive control of ethyl methanesulfonate (EMS) at a dose of 150 mg/kg/day were tested alongside the CBD-C4.
# A range finding study was performed on 9 male young adult out-bred Sprague Dawley rats justifying the chosen dose levels of CBD-C4 used during the study.
# Animals were allocated into groups of six with the exception of the positive control which comprised three animals.
# Rats were dosed by oral gavage with test article suspended in sesame oil, vehicle (sesame oil) or positive control.
# Blood samples were taken for bioanalysis and tissue samples were removed from animals at necropsy from the liver and femur.
# Bone marrow sampling, micronucleus slide preparation and comet cell suspensions were undertaken to determine level of toxicity of CBD-C4.
# [1] = test system: sub-chronic PCP-induced deficit in social behaviour in female Lister-Hooded rats; test: social interaction test in sub-chronic PCP treated rats
# Procedure: The aim of the current study was to investigate the ability of CBD-C4 (3, 10 & 30 mg/kg IP; 60 min pre-treatment (ptt)) in comparison with risperidone (an atypical antipsychotic; 0.1 mg/kg IP; 60 min pre-treatment), to antagonise a sub-chronic PCP (scPCP; 2 mg/kg IP; twice daily for 7-days; 7 day wash out)-induced deficit in social behaviour in female Lister-Hooded rats.
# 180 female Lister Hooded rats were used for this experiment, of which 90 were used for the drug study and 90 weight-matched untreated conspecifics were used as the companion rat, and their behaviour was not scored.
# Rats were housed in groups of 5 under standard laboratory conditions under a 12-hr light: dark cycle, lights on at 0700 hr. Testing was carried out in the light phase. These studies were carried out in accordance with the Animals Scientific Procedures Act (UK, 1986).
# CBD-C4 was used at doses of (3, 10, 30 mg/kg, i.p.) and risperidone was used at a dose of 0.1 mg/kg, i.p.
# Rats were randomly assigned to two treatment groups and treated with vehicle, n=15 (distilled water, i.p.) or PCP, n=75 (2 mg/kg, i.p. twice daily for 7-days). This was followed by a 7-day wash out period before the rats were tested following acute treatment with CBD-C4, risperidone or vehicle.
# Risperidone (0.1 mg/kg) was dissolved in a minimum volume of acetic acid, made up to volume with distilled water and pH adjusted to 6 with 0.1M NaOH and administered via the i.p. route in a volume of 1 ml/kg, 60 min prior to testing.
# CBD-C4 (3, 10 & 30 mg/kg) was dissolved in 2:1:17 (Ethanol:Cremophor EL:Saline 0.9%). CBD-C4 was administered via the i.p. route in a volume of 5 ml/kg, 60 min prior to testing.
# The social interaction test was performed in an open-field comprising a square box made of Plexiglas (52×52×31 cm) placed 27 cm above the floor on a moveable trolley. The floor of the box was white with black gridlines forming 9 identical squares on it. All other walls were black. A video camera connected to a video recorder and monitor was positioned above the box. The object used for the test consists of a heavy structure made of metal that cannot be displaced by the animals.
# After a 7 day drug-free period, the rats were habituated to the test environment and arena prior to the test day. Habituation consisted of placing all rats from one cage together in the empty test arena for one hour for three days including the day before the test day.
# Pairs of rats, weight matched (15-20 g) and unfamiliar to each other, receiving either no treatment (n=90 “conspecific” rats) or different treatments (PCP; n=15 “tested” rats, Vehicle; n=15 “tested” rats, or PCP+drug; n=60 “tested” rats) were placed in the test arena together for 10 minutes and behavior assessed as described below.
# An inanimate object such as an unopened drink can was also placed in the centre of the arena to measure any differences in interaction of the test animal with an unfamiliar animal as opposed to an unfamiliar object. After each 10-minute trial, the object and arena were cleaned with 10% alcohol in an attempt to remove traces of any olfactory cues. All testing was carried out under standard room illumination levels (70 cd/m^2).
# Behaviour in both trials was recorded on video for subsequent blind scoring. A behavioural scoring software program (Hindsight, Scientific programming services) was used to score the following parameters:
# Investigative sniffing behaviour: sniffing the conspecific's snout or parts of the body including the anogenital region.
# Following: rat moves after the conspecific i.e. a vehicle treated rat of the same species, around the arena.
# Avoidances: actively turning away when approached by the conspecific animal.
# Investigation of object: exploration of object placed in centre of the arena.
# Locomotor activity is recorded by counting the total number of sectors (i.e. lines) crossed by the test rat.
# All data were assessed for normality using D'Agostino and Pearson normality test. […]
# [2] = Toxicokinetic evaluation in embryo-foetal development study
# Procedure: Three groups of 20 time-mated female Wistar (Han) rats were given CBD-C4 once daily by the oral (gavage) route from Day 6 to Day 17 of gestation at dose levels of 1, 10 or 100 mg/kg/day (at a constant dose volume of 5 mL/kg), to cover the period of organogenesis.
# Blood samples were taken for toxicokinetic evaluation at pre-dose, 1, 2, 4, 6 and 24 hours after dosing on Days 6 and 17 of gestation. Clinical observations, body weight and food consumption were recorded. On Day 21 of gestation (GD 21) the females were euthanised, and the progress and outcome of pregnancy was evaluated.
# [3] = 13-week oral toxicity study in rats; settings: both sexes, rat, in vivo
# Procedure: (§1) The objective of the study was to determine the toxicity of CBD-C4 following daily oral (gavage) administration to the rat for 4 and 13 weeks. The toxicokinetic profile of the CBD-C4 was also assessed.
# (§2) Groups of 10 male and 10 female rats were doses at 1, 10 and 100 mg/kg/day for either 4 or 13 weeks.
# (§3) Assessment of toxicity of CBD-C4 was based on mortality, clinical observations, post-dose observations, body weights, food consumption, ophthalmic observations, clinical and anatomic pathology.
# (§4) Blood samples were collected on days 1 and 28 and week 13 of the study.
# rats = test: 13-week oral toxicity study in rats
# Procedure: as §1, §2, §3, §4
# [4] = CBD-C4 3, 10, 30 mg/kg, risperidone 0.1 mg/kg i.p., data not shown
# [5] = 1, 10 or 100 mg/kg/day oral gavage, 4 or 13 weeks
compound,measurement,setting,value
"C=C(C)[C@@H]1CCC(C)=C[C@H]1c1c(O)cc(CCCC)cc1O [CBD-C4, (1′R,2′R)-4-butyl-5′-methyl-2′-(prop-1-en-2-yl)-1′,2′,3′,4′-tetrahydro-[1,1′-biphenyl]-2,6-diol]",% hedgehogs in liver,"DNA damage in the liver; 125, 250 and 500 mg/kg/day oral gavage",no dose-related increase
same,group mean tail intensity and tail moment,"DNA damage in the liver; all groups, 125, 250 and 500 mg/kg/day oral gavage",comparable with the group mean vehicle control data
same,DNA damage in the liver (Comet assay),DNA damage in the liver; up to 500 mg/kg/day oral gavage,did not induce DNA damage; also recorded: No genotoxicity was observed
same,behavioural deficits induced by scPCP,[1]; 30 mg/kg i.p.,improved all the behavioural deficits
same,avoidance behaviour compared to the scPCP-treated group,"[1]; 30 mg/kg i.p., 60 min pre-treatment",significantly decreased
same,following behaviour compared to scPCP,"[1]; 30 mg/kg i.p., 60 min pre-treatment, P<0.001",significantly increased
same,sniffing behaviour compared to scPCP,"[1]; 30 mg/kg i.p., 60 min pre-treatment, P<0.01",significant increase
same,line crossings (locomotor activity),[1]; [4],no significant effect
same,object exploration,[1]; [4],no significant effect
same,any of the parameters measured in the social interaction test,[1]; lower doses 3 and 10 mg/kg i.p.,no effect
same,extent of accumulation (exposure after 12 daily doses vs single dose),[2]; 1 mg/kg/day,approximately 5 fold
same,extent of accumulation (exposure after 12 daily doses vs single dose),[2]; 100 mg/kg/day,~2 fold
same,time of maximum plasma concentration post dose,"[2]; GD 6, 1 mg/kg/day oral",2 h
same,time of maximum plasma concentration post dose,"[2]; GD 6, higher dose levels (10, 100 mg/kg/day) oral",6 h
same,time of maximum plasma concentration post dose,"[2]; GD 17, after 12 daily doses, all dose levels",4 h
same,plasma levels 24 hours after dosing,"[2]; both higher dose levels (10, 100 mg/kg/day)",quantifiable levels of CBD-C4 remained in plasma
same,increases in exposure (Cmax and AUC(0-t)) relative to the increase in dose,"[2]; both sampling occasions (GD 6, GD 17)",supra-proportional
same,time to complete elimination from plasma after dosing,"[2]; lowest dose level (1 mg/kg/day), both sampling occasions",≤ 24 h
same,NOAEL at 13 weeks,"[3]; 13-week daily oral gavage, rats",100 mg/kg/day
same,NOAEL at 13 weeks,"[3]; 13-week oral, sesame oil formulation, rats (summary)",100 mg/kg
same,clinical pathology parameters,rats; [5],no adverse changes
same,clinical signs,rats; [5],no adverse clinical signs
same,"food consumption, body weight, body weight gains and ophthalmoscopy",rats; [5],unaffected
same,test article-related deaths,rats; [5],no test article-related deaths
same,tolerability,rats; [5],well tolerated
same,liver findings,"rats; after 4 and 13 weeks of treatment, predominantly at 100 mg/kg/day, considered non-adverse",Large livers with correlating organ weight increase and centrilobular hypertrophy
